From patent US7972800B2, “Screening method for binding property or signal transduction alterations” (Takeda Pharmaceutical Company Limited, priority 2003, dated 2011) come the findings set out here.

Common to all, as to assay type: cell-based
The subject of assay [1] is CHO cells where the receptor was not expressed or GPCR other than GPR39 was expressed. The settings on record: FLIPR; control cells.
A further assay concerns rat GPR39. The settings on record: FLIPR, Fluo-3AM (FIG. 9 through FIG. 13). How it is done:
Using the CHO cell line where rat GPR39 was stably expressed, the agonist activity of metal ions was detected using FLIPR in terms of the intracellular calcium-increasing reaction as an indicator. The CHO cell line used, wherein rat GPR39 was stably expressed, was cultured in HAM's αMEM (Invitrogen Corp.) containing 10% calf fetal serum (Invitrogen Corp.). On the day before the assay was conducted, the human GPR39-expressing CHO cell line was cultured in a culture flask to reach a confluent state. After washing with PBS, the cells were scraped off using trypsin and centrifuged for recovery. The cells were then suspended in medium and the suspension was adjusted to 3×10^5 cells/ml. Then, the suspension was dispensed onto a black walled 96-well plate (Costar) in 100 μl each per well, followed by incubation overnight in a CO2 incubator.
On the day when the assay was conducted, various test samples were added to the cells and the changes of intracellular calcium levels in this case were determined by FLIPR (Molecular Device). In order to determine the changes in intracellular calcium levels on FLIPR, the cells were pre-treated by the following procedures. First, for the purpose of adding a fluorescent dye Fluo-3AM (DOJIN) to the cells or washing the cells immediately before the FLIPR assay, an assay buffer was prepared. A solution was prepared by adding 20 ml of 1M HEPES (pH 7.4) (DOJIN) to 1000 ml of HBSS (Invitrogen Corp.) (hereinafter HBSS/HEPES solution), to which solution was added 10 ml of a solution mixture obtained by dissolving 710 mg of Probenecid (Sigma) in 5 ml of 1N NaOH and further adding 5 ml of HBSS/HEPES solution thereto. The resulting solution was used as the assay buffer. Next, 50 μg of Fluo-3AM was dissolved in 21 μl of DMSO (DOJIN) and an equal volume of 20% Pluronic acid (Molecular Probes) was added to and mixed with the solution. The mixture was then added to 10.6 ml of the assay buffer supplemented with 105 μl of fetal calf serum to prepare a fluorescent dye solution. The medium for the CHO cells where human GPR39 was stably expressed was removed. Immediately thereafter, the fluorescent dye solution was dispensed in 100 μl each/well and the cells were incubated in a CO2 incubator for an hour so that the fluorescent dye was taken up into the cells. The cells after the incubation was washed with the assay buffer described above and set on FLIPR. A test sample to be added to the CHO cells where rat GPR39 was stably expressed was prepared using the assay buffer and set on FLIPR at the same time. Following the pre-treatment above, the changes in intracellular calcium levels after the addition of each test sample were determined by FLIPR.

The target of another assay is T1, human GPR39 (Homo sapiens, UniProt O43194).
T1 sequence (O43194 1-453): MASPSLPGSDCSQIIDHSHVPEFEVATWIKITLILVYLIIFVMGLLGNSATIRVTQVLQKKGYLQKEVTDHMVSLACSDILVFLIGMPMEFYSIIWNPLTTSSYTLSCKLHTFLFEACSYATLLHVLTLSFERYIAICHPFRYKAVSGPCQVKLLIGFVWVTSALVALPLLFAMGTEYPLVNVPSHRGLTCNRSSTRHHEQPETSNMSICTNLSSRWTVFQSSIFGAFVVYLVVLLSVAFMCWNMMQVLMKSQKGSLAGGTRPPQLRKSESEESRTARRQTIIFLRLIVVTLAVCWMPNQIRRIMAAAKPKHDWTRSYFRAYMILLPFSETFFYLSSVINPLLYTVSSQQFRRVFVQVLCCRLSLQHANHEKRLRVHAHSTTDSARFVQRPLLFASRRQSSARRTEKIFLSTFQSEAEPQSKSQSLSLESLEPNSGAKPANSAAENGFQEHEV
On the set-up: expressed in transfected cells; host or cells: CHO cells, vector pAKKO-111H. The settings on record: FLIPR, Fluo-3AM; metal salt added, 10-300 μM (FIGS. 1-4). As to the method:
The human GPR39-GFP expression vector-transfected CHO cell line produced in EXAMPLE 1 (CHO/hGPR39-GFP) was diluted in 3×10^4 cells/100 μl. The dilution was dispensed onto a Black walled 96-well plate (Costar) in 100 μl each per well, followed by incubation overnight in a CO2 incubator. Changes in intracellular calcium levels were determined by the following method using FLIPR (Molecular Device). In 21 μl of DMSO (DOJIN), 50 μg of Fluo-3AM (DOJIN) was dissolved and an equal volume of 20% Pluronic acid (Molecular Probes) was added to the solution. After mixing them, the resulting mixture was added to 10.6 ml of assay buffer [prepared by adding 20 ml of 1M HEPES (pH 7.4) (DOJIN) to HBSS (Invitrogen Corp.) and further adding to the solution 10 ml of a solution mixture, which mixture was prepared by dissolving 710 mg of Probenecid (Sigma) in 5 ml of 1N NaOH and then adding thereto 5 ml of the HBSS/HEPES solution above] supplemented with 105 μl of fetal calf serum to prepare a fluorescent dye solution. The medium in the cell plate was removed. Immediately thereafter, the fluorescent dye solution was dispensed in 100 μl each/well and the cells were incubated in a CO2 incubator for an hour so that the fluorescent dye was taken up into the cells. The cells after the incubation were washed with the assay buffer described above and set on FLIPR. Compounds of metal elements to be added to the cells were diluted to the respective concentration with the assay buffer. The dilutions were dispensed onto plates for ligands and set on FLIPR. Following the pre-treatment above, changes in intracellular calcium levels after addition of metal elements were determined by FLIPR to study agonist activities.

As to `[Cl][Ni][Cl]` [nickel chloride], the “intracellular calcium response in CHO cells without the receptor or with GPCR other than GPR39” value in assay [1] is “no such response was observed”. In addition, the “intracellular calcium levels of CHO/rGPR39” value in the assay on rat GPR39 is recorded as “dose-dependently increased”. Besides, on human GPR39, the “intracellular calcium levels of CHO/hGPR39-GFP” value is “dose-dependently increased”.
For the molecule `[Cl][Cu][Cl]` [copper chloride], in assay [1], the “intracellular calcium response in CHO cells without the receptor or with GPCR other than GPR39” value is given as “no such response was observed”. Also, the “intracellular calcium levels of CHO/rGPR39” value with rat GPR39 is “dose-dependently increased”. The “intracellular calcium levels of CHO/hGPR39-GFP” value at human GPR39 was “dose-dependently increased”.
